What all share (format): binding
In one test the target is T1, SHIP1 C2 domain (Mus musculus, UniProt Q9ES52).
T1 construct: Recombinant SHIP1 C2 domain (amino acid residues 725 to 863); made in house; host or cells: E. coli, pET28C
T1 sequence (Q9ES52 725-863): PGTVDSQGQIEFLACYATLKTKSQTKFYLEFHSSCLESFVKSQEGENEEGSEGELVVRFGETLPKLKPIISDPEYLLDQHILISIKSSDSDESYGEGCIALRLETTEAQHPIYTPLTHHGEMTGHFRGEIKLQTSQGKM
Description: Scintillation proximity assay, C2 domain. Particulars: C2 domain 10 nM, 5 μCi. The method, then:
(§1) Scintillation Proximity Assays AQX-MN100 was radiolabeled with tritium by GE Healthcare (Piscataway, N.J.) to a specific activity of 42 Ci/mmole. Copper chelate (His-Tag) YSi YSi SPA Scintillation Beads (GE Healthcare ,Piscataway, NJ) were diluted in 0.25% BSA/TBS to 1.5 mg/mL and recombinant, His6-tagged protein added at the indicated concentrations: wild-type (1 pM), ΔC2 SHIP enzyme (1 pM) or C2 domain (10 nM). Protein was allowed to bind 1 h at 23° C., and 250 μg of beads were aliquoted per well of a 96-well plate. 5 μCi of [3H]-AQX-MN100 was added per well, the plate gently agitated for 30 min and the amount of bead associated radioactivity quantified by counting in a Wallac BETAPLATE™ plate scintillation counter. Results are representative of 3 independent experiments.
In general terms: In a scintillation proximity assay essentially only radioactivity close to the scintillant gives light.

For the next test, the target named is T2, wild-type SHIP1 enzyme (Mus musculus, UniProt Q9ES52).
T2 construct: Full length, wild-type SHIP1 enzyme (wt); made in house; host or cells: 293T cells, transient transfection with pME18S-His-SHIP
T2 sequence (Q9ES52 1-1191): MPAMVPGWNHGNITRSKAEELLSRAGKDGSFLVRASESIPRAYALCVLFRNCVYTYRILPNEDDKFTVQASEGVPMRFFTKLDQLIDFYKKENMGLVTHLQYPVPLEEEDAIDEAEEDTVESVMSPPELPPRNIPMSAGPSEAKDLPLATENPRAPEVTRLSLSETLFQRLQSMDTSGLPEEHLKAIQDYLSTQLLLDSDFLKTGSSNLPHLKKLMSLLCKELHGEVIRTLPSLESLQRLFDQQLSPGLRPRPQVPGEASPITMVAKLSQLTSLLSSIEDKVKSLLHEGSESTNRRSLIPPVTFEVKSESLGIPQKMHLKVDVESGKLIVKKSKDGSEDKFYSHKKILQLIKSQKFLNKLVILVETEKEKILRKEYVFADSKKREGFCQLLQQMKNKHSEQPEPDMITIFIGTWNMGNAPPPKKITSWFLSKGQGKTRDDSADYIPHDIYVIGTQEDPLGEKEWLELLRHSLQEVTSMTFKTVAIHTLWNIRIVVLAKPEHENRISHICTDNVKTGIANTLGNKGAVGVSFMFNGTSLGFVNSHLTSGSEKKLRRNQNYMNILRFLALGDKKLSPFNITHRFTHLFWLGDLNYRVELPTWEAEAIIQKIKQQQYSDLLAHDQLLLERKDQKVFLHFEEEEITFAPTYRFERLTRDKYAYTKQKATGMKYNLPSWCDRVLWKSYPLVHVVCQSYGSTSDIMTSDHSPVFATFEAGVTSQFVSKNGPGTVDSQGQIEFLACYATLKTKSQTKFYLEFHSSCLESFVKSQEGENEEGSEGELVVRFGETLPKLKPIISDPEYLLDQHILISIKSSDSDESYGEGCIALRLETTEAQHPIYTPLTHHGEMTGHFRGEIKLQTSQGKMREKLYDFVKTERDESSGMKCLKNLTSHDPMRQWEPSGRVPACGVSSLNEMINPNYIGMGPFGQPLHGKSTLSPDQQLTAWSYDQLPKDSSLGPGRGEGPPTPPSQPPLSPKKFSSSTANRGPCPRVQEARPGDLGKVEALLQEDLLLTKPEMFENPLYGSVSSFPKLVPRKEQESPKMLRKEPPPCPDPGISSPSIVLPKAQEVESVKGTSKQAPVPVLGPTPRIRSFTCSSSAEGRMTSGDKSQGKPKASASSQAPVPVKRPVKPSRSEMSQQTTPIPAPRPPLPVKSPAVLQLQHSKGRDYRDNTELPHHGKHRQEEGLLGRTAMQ
The experiment in a line: Scintillation proximity assay, wild-type SHIP1. Particulars: 5 μCi. The method, then: as §1

The target of another test is T3, PH domain deleted SHIP1 (Mus musculus, UniProt Q9ES52, DEL292-400/E403A/P402A/Q401A).
T3 construct: Full length, wild-type SHIP1 enzyme (wt) or SHIP1 enzyme in which the PH or C2 domains were deleted; His6 (N); made in house; 293T cells are stated only for the wild-type enzyme
T3 sequence (Q9ES52 with tags, fused parts or gaps DEL292-400/Q401A/P402A/E403A): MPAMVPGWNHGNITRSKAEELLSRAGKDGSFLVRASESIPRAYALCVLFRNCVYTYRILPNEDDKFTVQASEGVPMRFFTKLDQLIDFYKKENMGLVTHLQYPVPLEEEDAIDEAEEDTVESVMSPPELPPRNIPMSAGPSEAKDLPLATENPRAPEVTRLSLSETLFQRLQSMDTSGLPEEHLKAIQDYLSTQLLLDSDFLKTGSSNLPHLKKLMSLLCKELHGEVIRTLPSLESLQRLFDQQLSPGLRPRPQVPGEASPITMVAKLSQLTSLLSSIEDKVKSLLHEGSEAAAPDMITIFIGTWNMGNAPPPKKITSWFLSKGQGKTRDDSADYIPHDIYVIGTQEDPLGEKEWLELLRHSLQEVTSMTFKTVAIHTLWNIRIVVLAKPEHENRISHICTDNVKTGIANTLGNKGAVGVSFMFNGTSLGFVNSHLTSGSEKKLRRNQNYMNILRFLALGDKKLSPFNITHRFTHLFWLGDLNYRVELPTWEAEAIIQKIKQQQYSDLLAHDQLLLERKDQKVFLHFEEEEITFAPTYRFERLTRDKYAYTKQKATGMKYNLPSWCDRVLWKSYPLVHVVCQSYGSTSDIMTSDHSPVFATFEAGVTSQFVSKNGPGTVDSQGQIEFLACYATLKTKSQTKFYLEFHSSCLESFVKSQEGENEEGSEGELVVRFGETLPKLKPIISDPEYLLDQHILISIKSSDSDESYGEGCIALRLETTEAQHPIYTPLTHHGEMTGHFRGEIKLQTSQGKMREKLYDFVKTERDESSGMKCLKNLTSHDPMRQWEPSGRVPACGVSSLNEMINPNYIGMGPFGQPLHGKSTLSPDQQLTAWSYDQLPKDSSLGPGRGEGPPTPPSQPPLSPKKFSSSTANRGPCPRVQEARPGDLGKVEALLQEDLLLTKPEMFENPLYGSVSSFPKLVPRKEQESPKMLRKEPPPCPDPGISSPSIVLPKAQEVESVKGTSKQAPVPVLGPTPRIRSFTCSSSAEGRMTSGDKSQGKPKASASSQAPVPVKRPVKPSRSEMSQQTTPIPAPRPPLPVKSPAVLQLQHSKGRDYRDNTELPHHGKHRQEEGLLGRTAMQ
Description: Scintillation proximity assay, PH domain deleted SHIP1.

“Also recorded” adds a separate entry of the source.

As to `Cc1cc(O)cc2c1[C@]1(C)CC[C@H]3C(C)(C)CCC[C@]3(C)[C@H]1C2` [AQX-MN100], on SHIP1 C2 domain, the “binding of [3H]-AQX-MN100 to recombinant C2 domain” value is “could directly bind; also recorded: reproducibly observed to bound; also recorded: binds”. Also, the “binding of [3H]-AQX-MN100 to wild-type SHIP1” value on wild-type SHIP1 enzyme is listed as “binds to wild-type SHIP1”. Besides, at PH domain deleted SHIP1, the “binding of [3H]-AQX-MN100 to SHIP1 with PH domain deleted” value is given as “attenuates the ability of SHIP1 to bind”.

The record behind these values is patent US8956824B2, “Methods for identifying allosteric modulators of ship polypeptides” (British Columbia Cancer Agency Branch, priority 2006, dated 2015).
